# Results taken from US20230010299A1, “HETEROCYCLIC TRPML1 AGONISTS” (LIBRA THERAPEUTICS, INC., priority 2019, published 2023).
# Molecular target: T1, TRPML1 (Homo sapiens, UniProt Q9GZU1)
# T1 construct: expressed in transfected cells
# Test: Cellular TRPML1 assay (FLIPR TETRA, GCaMP6f calcium read-out)
# Assay type: cell-based
# Settings: HEK T-REx/GCaMP6f/TRPML1 cells; Ca2+ response over 300 s, normalized to ML-SA1 50 μM; Ca2+ free or Optimem condition not given; read-out: Ec50 (Activity of TRPML1 agonists)
# Experimental: Buffers and reagents • PBS (D-PBS without calcium and magnesium; EuroClone) • Trypsin (Trypsin 0.05%, EDTA 0.02% in PBS; EuroClone) • DMSO (Sigma) • Ca^2+ free Tyrode's buffer: in-house solution (130 mM NaCl, 5 mM KCl, 1 mM MgCl2, 5 mM NaHCO3, 20 mM HEPES in water at pH 7.4; sterile filtered). • Opti-MEM (Gibco) • Agonist: ML-SA1 (Sigma); stock: 60 mM in DMSO, stored at −20° C. • Blocker: ML-SI3 (in house synthesis); stock: 20 mM in DMSO, stored at −20° C.
# The final clone for the TRPML1 assay is HEK T-REx/GCaMP6f/TRPML1.
# GCaMP6f is a genetically encoded calcium indicator that is stably expressed in this cell line and used as a fluorescent read-out.
# Experiments are performed in 384 MTP format. Cells are seeded at 15000 cells/well either in 25 μl/well of growth medium or in 20 μl/well of Optimem+0.5% FBS without selection antibiotics. Twenty-four hours later, cells are assayed for the response to various compounds using the Ca^2+ sensitive GCaMP6f protein stably expressed in the cells as readout.
# The experiment is performed in a 384-well format according to the following procedures for either Ca^2+ free or Optimem conditions: • Ca^2+ free condition (in absence of extracellular Ca^2+): • 24 h after seeding, pre-incubate the cells at room temperature for about 10′. • Then remove the culture medium and replace it with 20 μL of Ca^2+ free Tyrode's buffer. • Start the experiment at the FLIPR^TETRA by injecting 10 μL/w of 3× concentrated test compounds and controls in Ca^2+ free Tyrode's buffer. Monitor the kinetic response over a period of 300 seconds. • Final DMSO concentration: 0.5% • Optimem condition (in presence of extracellular Ca^2+): • 24 h after seeding, pre-incubate the cells at room temperature for about 10′. • Start the experiment at the FLIPR^TETRA by injecting 10 μL/w of 3× concentrated test compounds and controls in Ca^2+ free Tyrode's buffer. Monitor the kinetic response over a period of 300 seconds. • Final DMSO concentration: 0.5%
# Data from FLIPR^TETRA measurements are analyzed with the Genedata Screener® software.
# Stimulator controls (Col 2): injection of ML-SA1 EC100 (50 μM) in alternated wells positions
# Neutral controls (Col 2): injection of 0 mM Ca^2+ free Tyrode's buffer in alternated wells positions.
# Test wells (Col 3-22): test compounds dose response curve from either 100 μM with 1:2 dilution steps or from 50 μM with 1:3.16 dilution steps.
# T1 sequence (Q9GZU1 whole entry): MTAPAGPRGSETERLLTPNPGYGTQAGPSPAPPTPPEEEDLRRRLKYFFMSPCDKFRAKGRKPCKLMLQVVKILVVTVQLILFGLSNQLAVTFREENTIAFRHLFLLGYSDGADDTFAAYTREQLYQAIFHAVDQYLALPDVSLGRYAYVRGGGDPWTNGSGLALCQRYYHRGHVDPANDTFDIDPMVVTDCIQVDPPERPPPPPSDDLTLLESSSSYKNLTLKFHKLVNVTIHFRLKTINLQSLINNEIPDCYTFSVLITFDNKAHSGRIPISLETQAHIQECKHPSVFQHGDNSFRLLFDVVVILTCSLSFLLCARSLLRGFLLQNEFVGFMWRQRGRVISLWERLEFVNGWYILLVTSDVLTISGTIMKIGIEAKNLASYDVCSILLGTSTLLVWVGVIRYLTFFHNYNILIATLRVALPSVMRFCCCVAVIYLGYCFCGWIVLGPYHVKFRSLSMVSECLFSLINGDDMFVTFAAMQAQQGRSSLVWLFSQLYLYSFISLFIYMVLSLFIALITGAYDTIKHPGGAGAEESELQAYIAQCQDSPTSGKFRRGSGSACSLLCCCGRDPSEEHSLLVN
row,Structure (SMILES),EC50 [µM]
1,"CC1Cc2cc(S(=O)(=O)Nc3ccccc3N3CCN(C(=O)OC(C)(C)C)CC3)ccc2O1 (racemic) [Example 92, tert-butyl 4-(2-((2-methyl-2,3-dihydrobenzofuran)-5-sulfonamido)phenyl)piperazine-1-carboxylate]",2.4
2,"COC1CCCN(c2ccccc2NS(=O)(=O)c2ccc(S(=O)(=O)N(C)C)cc2)CC1 (single isomer, unassigned) [Example 41, N1-(2-(4-methoxyazepan-1-yl)phenyl)-N4,N4-dimethylbenzene-1,4-disulfonamide]",4.4
3,"COC1CCCN(c2ccccc2NS(=O)(=O)c2ccc(S(=O)(=O)N(C)C)cc2)CC1 (single isomer, unassigned) [Example 42, N1-(2-(4-methoxyazepan-1-yl)phenyl)-N4,N4-dimethylbenzene-1,4-disulfonamide]",5.6
4,"CN(C)S(=O)(=O)c1ccc(S(=O)(=O)NC2CCCCC2N2CCC(Oc3ccccc3)CC2)cc1 (single isomer, unassigned) [Example 62, N1,N1-dimethyl-N4-[2-(4-phenoxypiperidin-1-yl)cyclohexyl]benzene-1,4-disulfonamide]",15.9
5,"CC1Cc2cc(S(=O)(=O)Nc3ccccc3N3CCN(C(=O)OC(C)(C)C)CC3)ccc2O1 (single isomer, unassigned) [Example 93, tert-butyl 4-(2-((2-methyl-2,3-dihydrobenzofuran)-5-sulfonamido)phenyl)piperazine-1-carboxylate]",4.9
6,"CC1Cc2cc(S(=O)(=O)Nc3ccccc3N3CCN(C(=O)OC(C)(C)C)CC3)ccc2O1 (single isomer, unassigned) [Example 94, tert-butyl 4-(2-((2-methyl-2,3-dihydrobenzofuran)-5-sulfonamido)phenyl)piperazine-1-carboxylate]",3.8
7,"O=S(=O)(Nc1ccccc1N1CCCCC1)c1cc2ccccc2s1 [Example 1, N-[2-(piperidin-1-yl)phenyl]-1-benzothiophene-2-sulfonamide]",91.1
8,"CN(C)c1ccc(S(=O)(=O)Nc2ccccc2N2CCCCC2)cc1 [Example 2, 4-(dimethylamino)-N-[2-(piperidin-1-yl)phenyl]benzene-1-sulfonamide]",58.9
9,"CN(C)c1ccccc1NS(=O)(=O)c1ccc(S(=O)(=O)N(C)C)cc1 [Example 3, N4-[2-(dimethylamino)phenyl]-N1,N1-dimethylbenzene-1,4-disulfonamide]",50.2
10,"CN(C)S(=O)(=O)c1ccc(S(=O)(=O)Nc2ccccc2N2CC3CCC2C3)cc1 (stereo not drawn) [Example 4, N4-(2-{2-azabicyclo[2.2.1]heptan-2-yl}phenyl)-N1,N1-dimethylbenzene-1,4-disulfonamide]",8.4
11,"CN(C(=O)c1ccc(S(=O)(=O)N(C)C)cc1)c1ccccc1N1CCN(C(=O)OC(C)(C)C)CC1 [Example 5, tert-butyl 4-(2-(4-(N,N-dimethylsulfamoyl)-N-methylbenzamido)phenyl)piperazine-1-carboxylate]",6
12,"CN(C)S(=O)(=O)c1ccc(CC(=O)Nc2ccccc2N2CCCC2)cc1 [Example 7, 2-[4-(dimethylsulfamoyl)phenyl]-N-[2-(pyrrolidin-1-yl)phenyl]acetamide]",85.4
13,"CN(C)S(=O)(=O)c1ccc(S(=O)(=O)Nc2ccccc2N2CCc3ccccc32)cc1 [Example 8, N4-[2-(2,3-dihydro-1H-indol-1-yl)phenyl]-N1,N1-dimethylbenzene-1,4-disulfonamide]",64
14,"CN(C)S(=O)(=O)c1ccc(S(=O)(=O)Nc2ccccc2N2CCc3ccccc3C2)cc1 [Example 9, N1,N1-dimethyl-N4-[2-(1,2,3,4-tetrahydroisoquinolin-2-yl)phenyl]benzene-1,4-disulfonamide]",47.4
15,"CN(C(=O)c1ccc(S(=O)(=O)N(C)C)cc1)c1ccccc1N1CCC(Oc2ccccn2)CC1 [Example 10, 4-(N,N-dimethylsulfamoyl)-N-methyl-N-(2-(4-(pyridin-2-yloxy)piperidin-1-yl)phenyl)benzamide]",8.4
16,"O=S(=O)(Nc1ccccc1N1CCCCC1)c1sccc1C1OCCO1 [Example 11, 3-(1,3-dioxolan-2-yl)-N-[2-(piperidin-1-yl)phenyl]thiophene-2-sulfonamide]",33.5
17,"CN(C)S(=O)(=O)c1ccc(S(=O)(=O)Nc2ccccc2N2CCC(c3ccccc3)CC2)cc1 [Example 12, N1,N1-dimethyl-N4-[2-(4-phenylpiperidin-1-yl)phenyl]benzene-1,4-disulfonamide]",2.8

row,Structure (SMILES),EC50 [µM]
1,"CCCN(C)C(=O)C1CCN(c2ccccc2NS(=O)(=O)c2ccc(S(=O)(=O)N(C)C)cc2)CC1 [Example 14, 1-(2-((4-(N,N-dimethylsulfamoyl)phenyl)sulfonamido)phenyl)-N-methyl-N-propylpiperidine-4-carboxamide]",19.7
2,"CN(C(=O)c1ccc(S(=O)(=O)N(C)C)cc1)c1ccccc1N1CCCCC1 [Example 15, 4-(dimethylsulfamoyl)-N-methyl-N-[2-(piperidin-1-yl)phenyl]benzamide]",59.1
3,"CC(C)(C)c1ccc(S(=O)(=O)Nc2ccccc2N2CC3CCC2C3)s1 (stereo not drawn) [Example 16, N-(2-{2-azabicyclo[2.2.1]heptan-2-yl}phenyl)-5-tert-butylthiophene-2-sulfonamide]",14.6
4,"CCc1ccc(S(=O)(=O)Nc2ccccc2N2CC3CCC2C3)s1 (stereo not drawn) [Example 17, N-(2-{2-azabicyclo[2.2.1]heptan-2-yl}phenyl)-5-ethylthiophene-2-sulfonamide]",18.2
5,"CCc1ccc(S(=O)(=O)Nc2ccccc2N2CCN(C(=O)OC(C)(C)C)CC2)cc1 [Example 18, tert-butyl 4-(2-((4-ethylphenyl)sulfonamido)phenyl)piperazine-1-carboxylate]",3.5
6,"CCc1ccc(S(=O)(=O)N(C)c2ccccc2N2CC3CCC2C3)s1 (stereo not drawn) [Example 21, N-(2-{2-azabicyclo[2.2.1]heptan-2-yl}phenyl)-5-ethyl-N-methylthiophene-2-sulfonamide]",55.6
7,"CN(C)S(=O)(=O)c1ccc(S(=O)(=O)NC2CCCCC2N2CCCCC2)cc1 (stereo not drawn) [Example 22, N1,N1-dimethyl-N4-[2-(piperidin-1-yl)cyclohexyl]benzene-1,4-disulfonamide]",98
8,"Cc1cccc(S(=O)(=O)Nc2ccccc2N2CCCCC2)c1 [Example 23, 3-methyl-N-[2-(piperidin-1-yl)phenyl]benzene-1-sulfonamide]",15.5
9,"CN(C)S(=O)(=O)c1ccc(S(=O)(=O)Nc2ccccc2N2CCOCC2)cc1 [Example 27, N1,N1-dimethyl-N4-[2-(morpholin-4-yl)phenyl]benzene-1,4-disulfonamide]",13.3
10,"CC(C)c1ccc(S(=O)(=O)Nc2ccccc2N2CCN(C(=O)OC(C)(C)C)CC2)cc1 [Example 28, tert-butyl 4-(2-((4-isopropylphenyl)sulfonamido)phenyl)piperazine-1-carboxylate]",2.9
11,"CC(C)c1ccc(S(=O)(=O)Nc2ccccc2N2CCC(C(=O)OC(C)(C)C)CC2)cc1 [Example 29, tert-butyl 1-(2-((4-isopropylphenyl)sulfonamido)phenyl)piperidine-4-carboxylate]",2.3
12,"CN(C)S(=O)(=O)c1ccc(S(=O)(=O)Nc2ccccc2CN2CCCCC2)cc1 [Example 30, N1,N1-dimethyl-N4-(2-(piperidin-1-ylmethyl)phenyl)benzene-1,4-disulfonamide]",50
13,"CC(C)Oc1ccc(S(=O)(=O)Nc2ccccc2N2CCC(C(=O)OC(C)(C)C)CC2)cc1 [Example 31, tert-butyl 1-(2-((4-isopropoxyphenyl)sulfonamido)phenyl)piperidine-4-carboxylate]",6
14,"CN(C)S(=O)(=O)c1ccc(S(=O)(=O)Nc2ccccc2N2CCCC2)cc1 [Example 32, N1,N1-dimethyl-N4-[2-(pyrrolidin-1-yl)phenyl]benzene-1,4-disulfonamide]",19.2
15,"CN(C)S(=O)(=O)c1ccc(S(=O)(=O)Nc2ccccc2N2CCCC(c3ccccc3)C2)cc1 (stereo not drawn) [Example 35, N1,N1-dimethyl-N4-[2-(3-phenylpiperidin-1-yl)phenyl]benzene-1,4-disulfonamide]",7.7
16,"COC1CCCN(c2ccccc2NS(=O)(=O)c2ccc(S(=O)(=O)N(C)C)cc2)C1 (stereo not drawn) [Example 36, N4-[2-(3-methoxypiperidin-1-yl)phenyl]-N1,N1-dimethylbenzene-1,4-disulfonamide]",7.3
